This assay addresses human Nav1.7 (Homo sapiens (Human), UniProt Q15858). Put plainly: FLIPR or FLIPR TETRA sodium dye assay with KCl and test article pre-incubation. The format is cell-based. The note with it: sodium channel blocking activity, recombinant HEK293 cells, CoroNa Green dye, veratridine + scorpion venom; read-out: Nav1.7 IC50 (μM) ± SEM.

Sequence of human Nav1.7 (Q15858 with tags, fused parts or gaps limits assumed): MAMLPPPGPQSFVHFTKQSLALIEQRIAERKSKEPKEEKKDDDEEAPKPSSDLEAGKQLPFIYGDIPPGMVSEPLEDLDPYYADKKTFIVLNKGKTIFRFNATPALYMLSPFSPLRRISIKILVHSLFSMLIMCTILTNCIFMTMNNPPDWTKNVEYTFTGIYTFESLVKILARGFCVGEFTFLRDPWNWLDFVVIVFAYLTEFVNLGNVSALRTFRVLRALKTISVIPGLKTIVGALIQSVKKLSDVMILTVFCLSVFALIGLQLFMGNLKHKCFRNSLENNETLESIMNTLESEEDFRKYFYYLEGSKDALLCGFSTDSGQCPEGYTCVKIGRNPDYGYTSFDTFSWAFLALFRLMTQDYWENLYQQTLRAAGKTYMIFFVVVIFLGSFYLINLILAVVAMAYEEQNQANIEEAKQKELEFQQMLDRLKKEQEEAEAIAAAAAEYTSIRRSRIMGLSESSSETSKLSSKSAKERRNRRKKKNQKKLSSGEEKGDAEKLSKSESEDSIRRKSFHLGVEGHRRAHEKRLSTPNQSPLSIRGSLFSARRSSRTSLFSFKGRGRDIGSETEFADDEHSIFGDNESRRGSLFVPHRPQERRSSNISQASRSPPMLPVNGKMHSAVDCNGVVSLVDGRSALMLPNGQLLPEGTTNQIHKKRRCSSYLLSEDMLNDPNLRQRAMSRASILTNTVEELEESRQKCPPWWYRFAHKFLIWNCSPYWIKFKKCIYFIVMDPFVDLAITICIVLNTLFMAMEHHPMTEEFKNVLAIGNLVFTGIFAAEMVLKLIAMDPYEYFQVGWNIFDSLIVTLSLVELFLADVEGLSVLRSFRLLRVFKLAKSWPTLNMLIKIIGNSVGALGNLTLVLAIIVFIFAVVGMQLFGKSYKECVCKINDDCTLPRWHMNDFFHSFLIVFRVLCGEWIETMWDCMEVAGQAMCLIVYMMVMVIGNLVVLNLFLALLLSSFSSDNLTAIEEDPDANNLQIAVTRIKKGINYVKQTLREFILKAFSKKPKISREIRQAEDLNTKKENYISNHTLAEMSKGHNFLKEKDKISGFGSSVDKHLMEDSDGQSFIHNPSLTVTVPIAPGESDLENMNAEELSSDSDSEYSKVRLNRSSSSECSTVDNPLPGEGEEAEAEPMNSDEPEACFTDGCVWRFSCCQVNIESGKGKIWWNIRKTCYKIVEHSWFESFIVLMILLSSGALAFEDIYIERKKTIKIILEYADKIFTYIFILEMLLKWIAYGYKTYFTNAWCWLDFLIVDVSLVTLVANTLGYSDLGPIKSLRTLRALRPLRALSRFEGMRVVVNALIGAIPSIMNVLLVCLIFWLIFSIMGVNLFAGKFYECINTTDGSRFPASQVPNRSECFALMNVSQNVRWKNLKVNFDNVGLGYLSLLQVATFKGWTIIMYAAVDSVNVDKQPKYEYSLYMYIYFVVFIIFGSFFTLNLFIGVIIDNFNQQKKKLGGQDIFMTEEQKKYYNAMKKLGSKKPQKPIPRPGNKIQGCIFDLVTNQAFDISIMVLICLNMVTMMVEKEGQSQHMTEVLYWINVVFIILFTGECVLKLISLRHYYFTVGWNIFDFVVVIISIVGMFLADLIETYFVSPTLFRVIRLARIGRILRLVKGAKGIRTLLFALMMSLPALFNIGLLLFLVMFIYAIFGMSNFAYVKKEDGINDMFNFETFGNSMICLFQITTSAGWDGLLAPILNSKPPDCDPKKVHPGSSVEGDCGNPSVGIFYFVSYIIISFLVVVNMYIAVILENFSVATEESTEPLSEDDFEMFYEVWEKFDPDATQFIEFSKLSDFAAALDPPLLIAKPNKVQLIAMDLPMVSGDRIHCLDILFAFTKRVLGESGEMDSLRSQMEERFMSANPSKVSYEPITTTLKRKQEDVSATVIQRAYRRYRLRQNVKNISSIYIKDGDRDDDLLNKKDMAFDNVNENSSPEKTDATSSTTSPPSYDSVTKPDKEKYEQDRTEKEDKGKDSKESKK

Take `Cc1cc(-c2nnn(CC(N)=O)n2)cc(-c2ccc(Oc3ccc(F)cc3)cc2)n1` [compound 108, 2-(5-(2-(4-(4-fluorophenoxy)phenyl)-6-methylpyridin-4-yl)-2H-tetrazol-2-yl) acetamide]: the IC50 came out at 0.13 ± 0.01 µM.

(Values after patent US9611222B2, “Pyridine compounds and the uses thereof” (Purdue Pharma L.P., priority 2010, dated 2017).)
